Measured values taken from ChEMBL document CHEMBL5303573, “Mapping human microbiome drug metabolism by gut bacteria and their genes” (Nature, 2019).

Tests used:
Format in all cases: ADME
Settings in all cases: 2 µM
[1] = target: T1, Acetyl esterase (Acetylxylosidase) (Bacteroides thetaiotaomicron, UniProt Q8ABF8); experiment: The drug is tested on Bacteroides thetaiotaomicron strain: VPI-5482 for biotransformation. The drug concentrations were measured before and after a 12-h incubation by liquid-chromatography-coupled mass spectrometry (LC–MS); design: dose 2 uM
T1 sequence (Q8ABF8 whole entry): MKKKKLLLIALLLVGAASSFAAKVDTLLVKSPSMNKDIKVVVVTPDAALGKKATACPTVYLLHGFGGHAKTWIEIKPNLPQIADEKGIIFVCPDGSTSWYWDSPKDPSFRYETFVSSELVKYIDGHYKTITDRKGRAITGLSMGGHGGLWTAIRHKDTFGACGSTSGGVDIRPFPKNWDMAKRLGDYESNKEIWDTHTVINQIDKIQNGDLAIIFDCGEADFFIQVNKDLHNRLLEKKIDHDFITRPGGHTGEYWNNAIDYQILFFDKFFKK

[2] = (§1) The drug is tested on the gut metagenome community of MV01 with ENA study accession number: PRJEB31790 and ENA sample accession number: SAMEA5537482 for biotransformation. The drug concentrations were measured over 9 timepoints collected between 0 and 24 hours of incubation by liquid-chromatography-coupled mass spectrometry (LC–MS); design: dose 2 uM, timepoint 0, 1, 2, 4, 6, 8, 12, 18, 24 hours
[3] = as §1, with “MV16” for “MV01”, “SAMEA5537497” for “SAMEA5537482”; design: dose 2 uM, timepoint 0, 1, 2, 4, 6, 8, 12, 18, 24 hours
[4] = as §1, with “MV24” for “MV01”, “SAMEA5537505” for “SAMEA5537482”; design: dose 2 uM, timepoint 0, 1, 2, 4, 6, 8, 12, 18, 24 hours
[5] = as §1, with “MV27” for “MV01”, “SAMEA5537508” for “SAMEA5537482”; design: dose 2 uM, timepoint 0, 1, 2, 4, 6, 8, 12, 18, 24 hours

Row | SMILES | Bacterial Biotransformation [1] | Bacterial Biotransformation [2] | Bacterial Biotransformation [3] | Bacterial Biotransformation [4] | Bacterial Biotransformation [5]
1 | C#C[C@]1(OC(C)=O)CC[C@H]2[C@@H]3CCC4=CC(=O)CC[C@@H]4[C@H]3CC[C@@]21C [NORETHINDRONE ACETATE] | Compound NOT metabolized | Compound metabolized | Compound metabolized | Compound metabolized | Compound metabolized
2 | CC(=O)OCC(CCn1cnc2cnc(N)nc21)COC(C)=O [FAMCICLOVIR] | Compound metabolized | Compound metabolized | Compound metabolized | Compound metabolized | Compound metabolized
3 | C#C[C@]1(O)CC[C@H]2[C@@H]3CCC4=CC(=O)CC[C@@H]4[C@H]3CC[C@@]21CC [LEVONORGESTREL] | Compound NOT metabolized |  |  |  | 
4 | COc1ccc([C@@H]2Sc3ccccc3N(CCN(C)C)C(=O)[C@@H]2OC(C)=O)cc1 [DILTIAZEM] | Compound NOT metabolized | Compound NOT metabolized | Compound NOT metabolized | Compound NOT metabolized | Compound NOT metabolized
5 | CC(=O)OCC(=O)[C@@]1(OC(C)=O)[C@@H](C)C[C@H]2[C@@H]3C[C@H](F)C4=CC(=O)C=C[C@]4(C)[C@@]3(F)[C@@H](O)C[C@@]21C [DIFLORASONE DIACETATE] | Compound NOT metabolized |  |  |  | 
